Biological target: Human immunodeficiency virus type 1 protease (Human immunodeficiency virus 1, UniProt Q72874)
Test: The compound was evaluated for its inhibition constant against HIV-1 protease (HIV PR)

SMILES	Ki [nM]
O[C@@H]1[C@@H](O)[C@@H](Cc2ccccc2)N(Cc2ccccc2)C(=NOCc2ccccc2)N(Cc2ccccc2)[C@@H]1Cc1ccccc1	3000
ON=C1N(Cc2ccccc2)[C@H](Cc2ccccc2)[C@H](O)[C@@H](O)[C@@H](Cc2ccccc2)N1Cc1ccccc1	42
